Reference: the supplement of paper PMC10307832

What was measured:
Assay in all cases: relative viability (nuclei count vs DMSO), 5 days (fraction); higher = more cells survive
[1] = compound: COc1cccc2cc(-c3nc([C@H]4CC[C@H](C(=O)O)CC4)n4ncnc(N)c34)[nH]c12 [OSI-027] + CCNC(=O)c1noc(-c2cc(C(C)C)c(O)cc2O)c1-c1ccc(CN2CCOCC2)cc1 [Luminespib] (partner 0.01 µM)
In short: (§1)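 One day after seeding in 1536-well plates, lung cancer cell lines were dosed by pin tool. Dosing was either single-drug or a fixed anchor-drug dose plus five library-drug doses (not always all listed) in √10 steps. After 5 days, nuclei were stained in one fix-and-stain step and counted on 4× images, and relative viability is the nuclei count of treated wells over that of vehicle wells, given as the median of duplicate plates.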

[2] = compound: COc1cccc2cc(-c3nc([C@H]4CC[C@H](C(=O)O)CC4)n4ncnc(N)c34)[nH]c12 [OSI-027] + O=C(CCCCCCC(=O)Nc1ccccc1)NO [Vorinostat] (partner 1 µM)
In short: as §1

[3] = compound: Cc1nc(NC(=O)N2CCC[C@H]2C(N)=O)sc1-c1ccnc(C(C)(C)C(F)(F)F)c1 [Alpelisib] + C[C@@H](Oc1cc(-c2cnn(C3CCNCC3)c2)cnc1N)c1c(Cl)ccc(F)c1Cl [Crizotinib] (partner 1 µM)
In short: as §1

[4] = compound: Cc1nc(NC(=O)N2CCC[C@H]2C(N)=O)sc1-c1ccnc(C(C)(C)C(F)(F)F)c1 [Alpelisib] + O=C(CCCCCCC(=O)Nc1ccccc1)NO [Vorinostat] (partner 1 µM)
In short: as §1

Cell Line | relative viability ([1]; first compound 0.01 µM) | relative viability ([1]; first compound 0.03162 µM) | relative viability ([1]; first compound 0.1 µM) | relative viability ([1]; first compound 0.3162 µM) | relative viability ([1]; first compound 1 µM) | relative viability ([2]; first compound 0.01 µM) | relative viability ([2]; first compound 0.03162 µM) | relative viability ([2]; first compound 0.1 µM) | relative viability ([2]; first compound 0.3162 µM) | relative viability ([2]; first compound 1 µM) | relative viability ([3]; first compound 0.04 µM) | relative viability ([3]; first compound 0.1265 µM) | relative viability ([3]; first compound 0.4 µM) | relative viability ([3]; first compound 1.265 µM) | relative viability ([3]; first compound 4 µM) | relative viability ([4]; first compound 0.04 µM) | relative viability ([4]; first compound 0.1265 µM) | relative viability ([4]; first compound 0.4 µM) | relative viability ([4]; first compound 1.265 µM) | relative viability ([4]; first compound 4 µM)
201T | 1.09 | 1.06 | 1 | 0.948 | 0.485 | 0.938 | 0.934 | 0.961 | 0.952 | 0.828 | 0.985 | 1 | 1.07 | 0.98 | 0.936 | 0.928 | 0.928 | 0.949 | 0.842 | 0.831
A549 | – | – | – | – | – | – | – | – | – | – | 0.698 | 0.707 | 0.625 | 0.389 | 0.405 | – | – | – | – | –
A-427 | 0.92 | 0.891 | 0.811 | 0.61 | 0.505 | 0.886 | 0.844 | 0.78 | 0.721 | 0.542 | 0.775 | 0.835 | 1.11 | 0.773 | 0.653 | 0.854 | 0.861 | 0.893 | 0.827 | 0.858
ABC-1 | – | 0.321 | 0.405 | 0.377 | 0.386 | 0.764 | 1.19 | 0.66 | 0.67 | 0.758 | 1.19 | 1.28 | 1.04 | 0.886 | 0.713 | 1.15 | 0.602 | 0.905 | 0.869 | 0.692
BEN | 0.327 | 0.467 | 0.307 | 0.187 | 0.221 | 0.557 | 0.55 | 0.511 | 0.428 | 0.297 | 0.956 | 0.95 | 1.04 | 0.884 | 0.866 | 0.588 | 0.544 | 0.715 | 0.578 | 0.584
CAL-12T | 0.342 | 0.533 | 0.589 | 0.0997 | 0.117 | 1.06 | 0.585 | 0.68 | 0.535 | 0.321 | 0.66 | 0.53 | 0.711 | 0.556 | 0.596 | 0.755 | 0.783 | 0.948 | 0.468 | 0.64
Calu-6 | – | – | – | – | – | – | – | – | – | – | 0.772 | 0.691 | 0.911 | 0.753 | 0.559 | – | – | – | – | –
EBC-1 | – | – | – | – | – | – | – | – | – | – | 0.229 | 0.177 | 0.204 | 0.199 | 0.177 | – | – | – | – | –
HCC-78 | – | – | – | – | – | 0.477 | 0.326 | 0.384 | 0.329 | 0.268 | 0.289 | 0.294 | 0.318 | 0.234 | 0.242 | 0.363 | 0.392 | 0.478 | 0.326 | 0.342
HCC-366 | – | – | – | – | – | 0.404 | 0.367 | 0.325 | 0.314 | 0.194 | 0.488 | 0.459 | 0.585 | 0.215 | 0.0795 | 0.429 | 0.356 | 0.353 | 0.208 | 0.156
IA-LM | – | – | – | – | – | 0.997 | 0.388 | 0.652 | 0.479 | 0.15 | 0.829 | 0.643 | 1.23 | 0.718 | 0.818 | 0.882 | – | 1.32 | 0.92 | 0.867
NCI-H522 | 1.2 | 1.25 | 1.19 | 0.698 | 0.58 | 0.768 | 1.02 | 0.883 | 0.686 | 0.638 | – | – | – | – | – | 0.79 | 0.977 | 1.04 | 0.867 | 0.742
NCI-H1299 | – | – | – | – | – | – | – | – | – | – | 0.935 | 0.943 | 1 | 0.996 | 0.936 | – | – | – | – | –
NCI-H1395 | 0.717 | 0.556 | 0.621 | 0.546 | 0.439 | 0.633 | 0.745 | 0.476 | 0.645 | 0.567 | – | – | – | – | – | 0.742 | 0.565 | 0.773 | 0.62 | 0.537
NCI-H1563 | 0.479 | 0.479 | 0.455 | 0.517 | 0.481 | – | – | – | – | – | 0.877 | 0.89 | 0.753 | 0.775 | 0.707 | – | – | – | – | –
NCI-H1623 | 0.511 | 0.423 | 0.322 | 0.323 | 0.202 | – | – | – | – | – | – | – | – | – | – | – | – | – | – | –
NCI-H1648 | – | – | – | – | – | 0.369 | 0.323 | – | 0.477 | 0.236 | – | – | – | – | – | 0.418 | 0.457 | 0.714 | 0.317 | 0.324
NCI-H1703 | – | – | – | – | – | – | – | – | – | – | 0.465 | 0.576 | 0.539 | 0.277 | 0.35 | – | – | – | – | –
NCI-H1792 | 0.737 | 0.268 | 0.37 | 0.422 | 0.18 | – | – | – | – | – | 1.01 | 0.884 | 0.983 | 0.886 | 0.72 | – | – | – | – | –
NCI-H1793 | 0.162 | 0.188 | 0.168 | 0.132 | 0.168 | 0.713 | 0.777 | 0.444 | 0.377 | 0.281 | – | – | – | – | – | 0.62 | 0.977 | 0.839 | 0.598 | 0.325
NCI-H2342 | 0.783 | 0.616 | 0.82 | 0.617 | 0.514 | 0.715 | 0.611 | 0.683 | 0.768 | 0.547 | – | – | – | – | – | 0.795 | 0.622 | 0.712 | 0.662 | 0.714
SW 900 | – | 0.153 | 0.169 | 0.171 | 0.163 | 0.545 | 0.592 | 0.386 | 0.421 | 0.206 | – | – | – | – | – | 0.497 | – | 0.587 | 0.368 | 0.461
